pIC50: −log10 of the molar value.
Biological target: T1, recombinant HsEg5 motor domain (amino acids 1-369-8His) (Homo sapiens, UniProt P52732)
T1 construct: Enzyme was recombinant HsEg5 motor domain (amino acids 1-369-8His); 8His (C)
T1 sequence (P52732 1-369): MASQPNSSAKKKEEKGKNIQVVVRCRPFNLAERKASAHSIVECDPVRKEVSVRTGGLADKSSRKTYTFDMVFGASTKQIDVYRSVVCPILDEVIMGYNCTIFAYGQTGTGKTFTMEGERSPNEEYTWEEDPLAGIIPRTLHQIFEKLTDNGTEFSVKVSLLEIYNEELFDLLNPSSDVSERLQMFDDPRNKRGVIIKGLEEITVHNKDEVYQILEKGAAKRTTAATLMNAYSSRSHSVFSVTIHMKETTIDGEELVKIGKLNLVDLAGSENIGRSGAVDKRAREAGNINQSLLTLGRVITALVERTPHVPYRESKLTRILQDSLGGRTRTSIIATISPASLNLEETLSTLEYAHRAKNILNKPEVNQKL
Test: Malachite Green Assay (Eg5 motor ATPase, phosphate liberated from ATP)
Type: biochemical
Description: Enzymatic activity of the Eg5 motor and effects of inhibitors was measured using a malchite green assay, which measures phosphate liberated from ATP, and has been used previously to measure the activity of kinesin motors (Hackney and Jiang, 2001). Enzyme was recombinant HsEg5 motor domain (amino acids 1-369-8His) and was added at a final concentration of 6 nM to 100 μl reactions. Buffer consisted of 25 mM PIPES/KOH, pH 6.8, 2 mM MgCl2, 1 mM EGTA, 1 mM dtt, 0.01% Triton X-100 and 5 μM paclitaxel. Malachite green/ammonium molybdate reagent was prepared as follows: for 800 ml final volume, 0.27 g of Malachite Green (J. T. Baker) was dissolved in 600 ml of H2O in a polypropylene bottle. […]
5 μl of compound diluted in 12% DMSO was added to the wells of 96 well plates. […] The reactions were then quenched by the addition of 150 μl malachite green/ammonium molybdate reagent, and absorbance read at 650 nanometers exactly 5 min after quench using a Spectramax Plus plate reader (Molecular Devices). Data was graphed and IC50s calculated using ExCel Fit (Microsoft).
Enzymatic activity of the Eg5 motor and effects of inhibitors was measured using a malachite green assay, which measures phosphate liberated from ATP, and has been used previously to measure the activity of kinesin motors (Hackney and Jiang, 2001). […] Data was graphed and IC50s calculated using ExCel Fit (Microsoft).

Row | Structure (SMILES) | pIC50
1 | CCC(c1nc2snc(C)c2c(=O)n1Cc1ccccc1)N(CCCN)C(=O)c1cccc(Cl)c1Cl (single isomer, unassigned; (+)) [Section 3: Example A7, (+) N-(3-Amino-propyl)-N-[1-(5-benzyl-3-methyl-4-oxo-4,5-dihydro-isothiazolo[5,4-d]pyrimidin-6-yl)-propyl]-2,3-dichloro-benzamide hydrogen chloride] | 6.87
2 | CCC(c1nc2c(C)nsc2c(=O)n1Cc1ccccc1)N(CCCN)C(=O)c1ccc(C)cc1 (centres unmarked) [Section 2: Example E1, N-(3-Amino-propyl)-N-[1-(6-benzyl-3-methyl-7-oxo-6,7-dihydro-isothiazolo[4,5-d]pyrimidin-5-yl)-propyl]-4-methyl-benzamide hydrogen chloride] | 7.05
